According to ChEMBL document CHEMBL1158828, “(+)-Myristinins A and D from Knema elegans, which inhibit DNA polymerase beta and cleave DNA” (J Nat Prod, 2005):
pIC50, pKi: −log10 of the molar value. Calls of active or inactive are those of the source. No cut-off for these calls is given here.

What was measured:
[1] = Potentiation of bleomycin-induced cytotoxicity against mouse P388D1 cells assessed as reduction in cell viability at 9 uM after 6 hrs by trypan blue exclusion test; assay type: functional
[2] = tested on: Escherichia coli; experiment: Induction of strand scission activity in Escherichia coli supercoiled pSP64 DNA assessed as relaxation of DNA after 1 hr by agarose gel electrophoresis in presence of Cu2+
[3] = molecular target: T1, DNA polymerase beta (Rattus norvegicus, UniProt P06766); experiment: Inhibition of rat recombinant DNA polymerase beta in presence of bovine serum albumin
[4] = molecular target: T1, DNA polymerase beta; experiment: Inhibition of rat recombinant DNA polymerase beta in absence of bovine serum albumin
[5] = tested on: Escherichia coli; experiment: Induction of strand scission activity in Escherichia coli supercoiled pSP64 DNA assessed as relaxation of DNA at 10 µM by agarose gel electrophoresis in presence of Cu2+
[6] = molecular target: DNA polymerase beta (Rattus norvegicus) (UniProt P06766); experiment: Activity of rat recombinant DNA polymerase beta using variable levels of dNTP concentration
[7] = molecular target: T1, DNA polymerase beta; experiment: Activity of rat recombinant DNA polymerase beta using variable levels of DNA template-primer

SMILES: O=C(CCCCCCCCc1ccccc1)c1c(O)cc(O)c([C@@H]2C[C@@H](c3ccc(O)cc3)Oc3cc(O)ccc32)c1O
- Activity [1]: 30%
- Activity [2]: Dose-dependent effect
- pIC50 [3]: 5.37
- pIC50 [4]: 5.92
- Activity [5]: Active
- Kii [6]: 0.8 µM
- Kis [6]: 23 µM
- pKi [7]: 4.92

SMILES: CCCCCCCCCCCC(=O)c1c(O)cc(O)c([C@@H]2C[C@@H](c3ccc(O)cc3)Oc3cc(O)ccc32)c1O
- Activity [1]: 30%
- Activity [2]: Dose-dependent effect
- pIC50 [3]: 4.92
- pIC50 [4]: 5.57
- Activity [5]: Active
- Kii [6]: 4.3 µM
- Kis [6]: 8.2 µM
- pKi [7]: 4.96
